# US20050250799A1, “Protease inhibitors for treatment of wrinkles” (priority 2004, published 2005)
# Experiments:
# [1] = system: UVB-induced wrinkle formation; assay: Example 6: UVB-induced skin wrinkling; type: in vivo, Skh-1 hairless mice; conditions: UVB + 0.1% in 25% DMSO + 75% ethanol, 100 μl on back skin three times weekly, 10 weeks; category 0 (no wrinkle) to 4 (severe wrinkle)
# [2] = system: UVB-induced vessel dilation; assay: Example 6: dermal blood vessel area (CD31 staining) after UVB; type: in vivo, Skh-1 hairless mice; conditions: UVB + 0.1% in 25% DMSO + 75% ethanol, 100 μl on back skin three times weekly, 10 weeks; dermis
# back skin of mice = assay: Example 5: skin irritation score on back skin; type: in vivo, mice (FVB strain); conditions: 0.1% in 25% DMSO + 75% ethanol, 5 μl on back skin, score 0 (no erythema) to 4
# Protocol: The hair of the back skin of mice (FVB strain, female, 7 weeks of age, n=3/group) was clipped by an electric clipper on day 0. 5 μl of test sample solution (˜1 cm diameter) was applied on the back skin. After 24 hours (day 1), skin irritation was measured on the basis of a scoring system (0: no erythema; 1: very slight erythema; 2: well-defined erythema; 3: moderate erythema; 4: several erythema and edema) and a second dose administered. After a second 24 hours (day 2), skin irritation was measured and a third dose administered. After a third 24 hours (day 3), skin irritation was again measured.
# [3] = system: UVB-induced vessel dilation; assay: Example 3: dermal blood vessel area (CD31 staining) after UVB; type: in vivo, hairless Skh-1 mice; conditions: UVB + 1% in DMSO, 100 μl on back skin three times weekly, 10 weeks; dermis
# Protocol: (§1) Five groups of mice (7-week-old female hairless Skh-1 mice, n=3/group) were used: group 1: UVB+1% ucf-101 in DMSO; group 2: UVB+DMSO control; group 3: UVB+0.1% ucf-101 in acetone; group 4: UVB+acetone control; group 5: no UVB control.
# (§2) Groups 1, 2, 3 and 4 were exposed to UVB irradiation using fluorescent lamps (Southern New England Ultraviolet) to deliver 0.35 mW/cm^2 at the dorsal skin surface of the mice. After irradiation, the indicated samples (100 μl each) for each group were applied to the back skin. This procedure was repeated three times weekly for ten weeks, to simulate chronic UVB exposure. […] The total cumulative dose was 6.54 J/cm^2 UVB.
# (§3) After 10 weeks, skin wrinkling was evaluated using five categories (0: no wrinkle; 1: slight wrinkle; 2: clear wrinkle; 3: strong wrinkle; 4: severe wrinkle). Mice of group 1 and group 2 were sacrificed and back skin samples were snap-frozen in liquid nitrogen. Immunohistochemical staining was performed on 7-micrometer frozen sections using a monoclonal rat anti-mouse CD31 antibody (BD Pharmingen). Representative sections were obtained from UVB irradiated mice and were analyzed using a Nikon E-600 microscope. Images were captured with a Spot digital camera (Diagnostic Instruments), and morphometric analyses were performed using the IP-LAB software. Areas occupied by blood vessels were determined in the dermis.
# UVB-irradiated mice ears = assay: Example 2: ear thickness on UVB-exposed skin; type: in vivo, mice (Swiss Webster strain); conditions: 1% in DMSO; for Left ear thickness (mean): UVB 80 mJ/cm^2, 5 μl on days 0, 1, 2
# Protocol: The ear thickness of mice (Swiss Webster strain, male, 7 weeks of age, n=3/group) was measured with a thickness gauge (Mitsutoyo Corp.) on day 0. After measuring the thickness of both ears, both ears were UVB-irradiated (80 mJ/cm^2). 5 μl of 1% ucf-101 in DMSO was applied to the left ear and 5 μl of DMSO was applied to the right ear. After 24 hours (day 1), ear thickness was measured and a second dose administered (left ear 1% ucf-101 in DMSO; right ear: DMSO). After a second 24 hours (day 2), ear thickness was again measured and a third dose administered (left ear 1% ucf-101 in DMSO; right ear: DMSO). Ear thickness was then monitored over four additional consecutive days (days 3-6).
# [4] = system: various other serine proteases; conditions: various other serine proteases tested; cited from earlier work
# mice ears [5] = assay: Example 1: effect on ear thickness (skin irritancy); type: in vivo, mice (FVB strain); conditions: for Left ear thickness (mean): 10 μl on left ear
# Protocol: Control thickness of mice ears (FVB strain, male, 7 weeks of age, n=3/group) was measured with a thickness gauge (Mitsutoyo Corp.). After measuring the thickness of both ears, 10 μl of ucf-101 solution (1.0% or 0.1%) was applied to the left ear and 10 μl of solvent was applied to the right ear. Ear thickness was measured for three consecutive days after administration.
# [6] = system: caspase-9 (−/−) null fibroblasts; conditions: cited from earlier work
# mice ears [7] = assay: Example 4: effects of test samples on ear thickness; type: in vivo, mice (FVB strain); conditions: 0.1% in 25% DMSO + 75% ethanol, 10 μl on days 0, 1, 2
# Protocol: Control thickness of mice ears (FVB strain, female, 7 weeks of age, n=3/group) was measured with a thickness gauge (Mitsutoyo Corp.) on day 0. After measuring the thickness of both ears, 10 μl of test sample solution was applied to the left ear and 10 μl of solvent was applied to the right ear. After 24 hours (day 1), ear thickness was measured and a second dose administered (left ear: test solution, right ear: solvent). After a second 24 hours (day 2), ear thickness was measured and a third dose administered (left ear: test solution, right ear: solvent).
# [8] = system: UVB-induced wrinkle formation; assay: Example 3: UVB-induced skin wrinkling; type: in vivo, hairless Skh-1 mice; conditions: 100 μl on back skin three times weekly, 10 weeks, category 0 (no wrinkle) to 4 (severe wrinkle)
# Protocol: as §1, §2, §3
# [9] = target: T1, Omi/HtrA2 (His-Omi 134-458) (Homo sapiens, UniProt O43464); conditions: cited from earlier work
# T1 construct: His
# T1 sequence (O43464 134-458): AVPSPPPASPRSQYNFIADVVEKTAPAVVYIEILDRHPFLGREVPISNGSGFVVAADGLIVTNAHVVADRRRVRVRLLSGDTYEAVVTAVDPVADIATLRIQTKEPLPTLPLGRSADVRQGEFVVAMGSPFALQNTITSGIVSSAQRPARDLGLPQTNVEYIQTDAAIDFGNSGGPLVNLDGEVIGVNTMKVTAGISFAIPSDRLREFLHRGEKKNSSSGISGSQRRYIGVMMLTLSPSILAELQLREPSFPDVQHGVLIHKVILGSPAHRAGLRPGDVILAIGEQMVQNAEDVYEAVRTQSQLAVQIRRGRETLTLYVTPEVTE
# caspase 3 = target: T2, caspase 3 (Homo sapiens, UniProt P42574); conditions: cited from earlier work
# T2 sequence (P42574 29-175 limits assumed): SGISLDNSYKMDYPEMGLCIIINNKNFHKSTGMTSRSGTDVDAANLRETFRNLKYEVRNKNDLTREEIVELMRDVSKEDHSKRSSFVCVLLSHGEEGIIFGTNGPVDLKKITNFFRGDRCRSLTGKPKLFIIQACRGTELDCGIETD
# T2 sequence (P42574 176-277 limits assumed): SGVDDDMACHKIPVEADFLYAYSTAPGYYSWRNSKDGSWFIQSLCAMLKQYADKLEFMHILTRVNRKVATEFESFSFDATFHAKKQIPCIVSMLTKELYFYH
# caspase 1 = target: T3, caspase 1 (Homo sapiens, UniProt P29466); conditions: cited from earlier work
# T3 sequence (P29466 120-297 limits assumed): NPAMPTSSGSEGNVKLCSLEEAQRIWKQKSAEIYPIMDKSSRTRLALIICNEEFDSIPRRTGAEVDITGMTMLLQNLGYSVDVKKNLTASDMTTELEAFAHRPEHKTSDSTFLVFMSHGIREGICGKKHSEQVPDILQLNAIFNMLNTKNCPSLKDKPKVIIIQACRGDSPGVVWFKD
# T3 sequence (P29466 317-404 limits assumed): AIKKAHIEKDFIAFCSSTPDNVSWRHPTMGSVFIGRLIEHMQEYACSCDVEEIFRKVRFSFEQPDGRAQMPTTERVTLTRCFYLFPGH
# caspase 7 = target: T4, caspase 7 (Homo sapiens, UniProt P55210); conditions: cited from earlier work
# T4 sequence (P55210 24-198 limits assumed): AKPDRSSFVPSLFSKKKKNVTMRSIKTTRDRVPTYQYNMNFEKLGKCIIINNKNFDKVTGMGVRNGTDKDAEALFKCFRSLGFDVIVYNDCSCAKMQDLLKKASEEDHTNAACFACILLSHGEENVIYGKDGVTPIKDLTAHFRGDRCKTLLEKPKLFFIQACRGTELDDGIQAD
# T4 sequence (P55210 207-303 limits assumed): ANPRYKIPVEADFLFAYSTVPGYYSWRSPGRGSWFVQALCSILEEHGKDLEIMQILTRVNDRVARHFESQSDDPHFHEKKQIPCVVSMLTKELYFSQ
# caspase 4 = target: T5, caspase 4 (Homo sapiens, UniProt P49662); conditions: cited from earlier work
# T5 sequence (P49662 81-270 limits assumed): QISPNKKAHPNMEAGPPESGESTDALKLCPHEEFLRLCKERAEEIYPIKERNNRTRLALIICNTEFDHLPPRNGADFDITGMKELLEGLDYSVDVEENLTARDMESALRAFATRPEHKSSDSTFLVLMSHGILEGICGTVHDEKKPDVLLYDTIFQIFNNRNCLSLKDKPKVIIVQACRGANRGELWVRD
# T5 sequence (P49662 290-377 limits assumed): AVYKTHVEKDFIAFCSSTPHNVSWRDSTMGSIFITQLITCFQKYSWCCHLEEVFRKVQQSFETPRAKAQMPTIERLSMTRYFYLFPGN
molecule,measurement,setting,value
CC(C)C[C@H](CC(=O)NO)C(=O)N[C@@H](Cc1ccc2ccccc2c1)C(=O)N[C@@H](C)C(N)=O [TAPI-0],Wrinkle category (mean),[1],1.00
same,Percent of vessel area (mean),[2],8.9%
NC[C@H]1CC[C@H](C(=O)O)CC1 [Tranexamic acid],Wrinkle category (mean),[1],2.00
same,skin irritation score,back skin of mice; day 0,0
same,skin irritation score,back skin of mice; day 1,0
same,skin irritation score,back skin of mice; day 2,0
same,skin irritation score,back skin of mice; day 3,0
same,Percent of vessel area (mean),[2],8.7%
O=C1C(=Cc2ccc(-c3ccccc3[N+](=O)[O-])o2)C(=O)N(c2ccccc2)C(=S)N1c1ccccc1 [Ucf-101],Percent of vessel area (mean),[3],7.1%
same,Left ear thickness (mean),UVB-irradiated mice ears; day 0 (before UVB and application),31.0 ×0.01 mm
same,Left ear thickness (mean),UVB-irradiated mice ears; day 1,36.3 ×0.01 mm
same,Left ear thickness (mean),UVB-irradiated mice ears; day 2,40.0 ×0.01 mm
same,Left ear thickness (mean),UVB-irradiated mice ears; day 3,42.3 ×0.01 mm
same,Left ear thickness (mean),UVB-irradiated mice ears; day 4,42.7 ×0.01 mm
same,Left ear thickness (mean),UVB-irradiated mice ears; day 5,39.3 ×0.01 mm
same,Left ear thickness (mean),UVB-irradiated mice ears; day 6,38.3 ×0.01 mm
same,ear thickness (irritancy) compared to control,UVB-irradiated mice ears; UVB-exposed ears,did not increase ear thickness
same,Wrinkle category (mean),[1],1.00
same,IC50,[4],200 µM
same,Left ear thickness (mean),"mice ears [5]; 0.1% in acetone, day 0 (before application)",29.0 ×0.01 mm
same,Left ear thickness (mean),"mice ears [5]; 0.1% in acetone, day 1",30.0 ×0.01 mm
same,Left ear thickness (mean),"mice ears [5]; 0.1% in acetone, day 2",29.3 ×0.01 mm
same,Left ear thickness (mean),"mice ears [5]; 0.1% in acetone, day 3",29.0 ×0.01 mm
same,irritancy (ear thickness compared to solvent alone),mice ears [5]; 1% in DMSO or 0.1% in acetone,not an irritant
same,Left ear thickness (mean),"mice ears [5]; 1% in DMSO, day 0 (before application)",28.0 ×0.01 mm
same,Left ear thickness (mean),"mice ears [5]; 1% in DMSO, day 1",28.7 ×0.01 mm
same,Left ear thickness (mean),"mice ears [5]; 1% in DMSO, day 2",28.7 ×0.01 mm
same,Left ear thickness (mean),"mice ears [5]; 1% in DMSO, day 3",28.3 ×0.01 mm
same,block of Omi/HtrA2 induced cell death,[6],block Omi/HtrA2 induced cell death
same,skin irritation score,back skin of mice; day 0,0
same,skin irritation score,back skin of mice; day 1,0
same,skin irritation score,back skin of mice; day 2,0
same,skin irritation score,back skin of mice; day 3,0
same,Percent of vessel area (mean),[2],4.7%
same,Left ear thickness (mean),mice ears [7]; day 0 (before application),25.7 ×0.01 mm
same,Left ear thickness (mean),mice ears [7]; day 1,26.3 ×0.01 mm
same,Left ear thickness (mean),mice ears [7]; day 2,27.3 ×0.01 mm
same,Left ear thickness (mean),mice ears [7]; day 3,28.3 ×0.01 mm
same,Wrinkle category (mean),[8]; UVB + 0.1% in acetone,1.67
same,Wrinkle category (mean),[8]; UVB + 1% in DMSO,1.33
same,IC50,[9],9.5 µM
Ac-YVAD-CHO,Ki,caspase 3,≥ 50 µM
same,Ki,caspase 1,~0.01 µM
same,Ki,caspase 7,≥ 50 µM
same,Ki,caspase 4,~0.01 µM
zVAD-FMK,inhibition,caspase 3,inhibits
same,inhibition,caspase 1,inhibits
same,Wrinkle category (mean),[1],1.67
same,inhibition,caspase 7,inhibits
same,inhibition,caspase 4,inhibits
same,Percent of vessel area (mean),[2],8.8%
